Values quoted from earlier work in patent US20240226372A1, “HYDROPHILIC POLY(THIOKETAL) URETHANE SCAFFOLDS AND METHODS OF USE THEREOF” (Vanderbilt University, priority 2021, published 2024).

System: osteoblasts
Parameters: dose or concentration left out as unconfirmed
Conditions: 21 antibiotics

In the case of `CN[C@H](CC(C)C)C(=O)N[C@H]1C(=O)N[C@@H](CC(N)=O)C(=O)N[C@H]2C(=O)N[C@H]3C(=O)N[C@H](C(=O)N[C@H](C(=O)O)c4cc(O)cc(O)c4-c4cc3ccc4O)[C@H](O)c3ccc(c(Cl)c3)Oc3cc2cc(c3O[C@@H]2O[C@H](CO)[C@@H](O)[C@H](O)[C@H]2O[C@H]2C[C@](C)(N)[C@H](O)[C@H](C)O2)Oc2ccc(cc2Cl)[C@H]1O` [vancomycin], the “effects on osteoblast function” value is listed as “least detrimental effects”.
